# Experiments:
# Assay type in all cases: in vivo, rat
# [1] = tested on: SOD; experiment: SOD of MCAO rats (brain homogenate, kit); conditions: model group 40.28 ± 7.51
# Procedure: (§1) 10% chloral hydrate 0.35 g/kg was injected into the abdominal cavity of a rat to anesthetize thereof. The rat was fixed as supine position. The skin was disinfected thereof by 75% medical alcohol. It was cut right in the middle of the neck. The right common carotid artery, internal carotid artery and external carotid artery were separated and the common carotid artery and external carotid artery were ligated. The internal carotid artery was clamped with a bulldog clamp. A cut was made at the crotch of the external carotid artery and the internal carotid artery followed by releasing the bulldog clamp. The nylon wire (diameter 0.25 mm, marked at a distance of 18 mm from the head end) was inserted into the cut and the insertion was stopped when some resistance was felt. The insert depth was a little longer than 18 mm to achieve the cerebral ischemia caused by middle cerebral artery occlusion. The internal carotid artery was ligated and the nylon wire was fixed. The muscle and skin were sutured layer by layer. In sham operation group, the right common carotid artery, the external carotid artery and the internal carotid artery were only exposed and separated. The rats were conventionally raised in different cages regularly. 0.5 ml penicillin was continuously injected into every rat for three days after the surgery.
# The rats were divided into 7 groups in the experiment, that is, sham operation group, model group, Nimodipine group, LQC-T4 large dosage group, LQC-T4 small dosage group, TMP group, and TMP+Vanillic acid group. The model rats getting 1 point were distributed randomly into the model group and other administration group, while the rats getting 2 point and 3 point were distributed randomly into above 6 groups according the above method and sham operation group was not involved in the above grouping. 0.5% CMC-NA (1 ml·100 g^−1) was administrated intragastrically to the blank control group and the model group, two dosage group of 120 mg·kg^−1, 60 mg·kg^−1 were administrated intragastrically to the LQC-T4 (1 ml·100 g^−1) group, and 74 mg·kg^−1 TMP+46 mg·kg^−1 vanillitc acid (1 ml·100 g^−1) were administrated intragastrically, once per day continuously for 10 days.
# 10% chloral hydrate 0.35 g/kg was injected into the abdominal cavity to anesthetize them after the rats were administrated for 10 days. The head was cut and the brain was taken. The cranial bones were stripped, the meninges were peeled off to separate the ischemia side of the brain, the blood streak was striped and then the brain was weighed. 4 times amount of 0.9 physiological saline was added and the brain was homogenized in 0° C. ice bath. […]
# It was detected with 722 type visible spectrophotometer according to the kit operation. […]
# [2] = tested on: MCAO rats; experiment: Tactile stimulus experiment (time of MCAO rats removing the tape); conditions: for time of removing the tape, Evaluation (3 d): model group 244.29 ± 95.46; for time of removing the tape, Evaluation (7 d): model group 221.53 ± 105.33
# Text: 140 healthy SD male rats, weighing 280-300 g, provided by Beijing Vital River Laboratories, certificate No.: SCXK (Jing) 2002-2003. The method of [Koizumi J, Yoshida […]. Experimental studies of ischemia brain edema, I: A new experimental model of cerebral embolism in rats in which recirculation can be introduced in the ischemic area[J]. […] After the rats were anesthetized and the skin thereof was disinfected by ethanol. By cutting right in the middle of the neck, the right common carotid artery, internal carotid artery and external carotid artery were separated and the common carotid artery and external carotid artery were ligated. The internal carotid artery was clamped with a bulldog clamp. A cut was made at the crotch of the external carotid artery and the internal carotid artery followed by releasing the bulldog clamp. […] Next, the external carotid artery was ligated and the nylon wire was fixed. In sham operation group, the right common carotid artery, the external carotid artery and the internal carotid artery were only exposed and separated. The rats were routinely raised in different cages. 0.5 ml penicillin was continuously injected into every mouse for three days after the surgery. […] The rats getting 1-3 point were selected for the subsequent experiment. The MCAO rats having the same point were distributed randomly and averagely to each experimental group. […] Evaluated was the executive function change of side forelimb sense and fine motor movement after the cerebral ischemia. […] The third and the seventh days after the administration were set as the observation time to carry out the test. The SPSS 11.0 software pack was used to carry out the statistical analysis of all the data. The comparison of the enumeration data was carried out with X^2 test P<0.05 had statistical meaning.
# [3] = tested on: Ca^2+—Mg^2+ ATPase; experiment: Ca2+-Mg2+ ATPase of MCAO rats (brain homogenate, kit); conditions: ischemia side brain homogenate, model group 5.32 ± 2.61
# Procedure: 140 healthy SD male rats, weighing 280-300 g, provided by BeiJing Vital River Laboratories, certificate No.: SCXK (Jing) 2002-2003.
# 1.3 Experimental reagents: 0.9% physiological saline, Ca^2+—Mg^2+ enzyme kit
# as §1
# The rat condition was evaluated after 6 h after the surgery when the rats were conscious according to the Zea Longa 5 grades evaluating method, wherein no apparent neurological symptom was evaluated as 0 point; not being able to completely stretch the left front claw was evaluated as 1 point; whirling leftward was evaluated as 2 point; leaning leftward when walking was evaluated as 3 point; having an epileptic seizure, losing consciousness and not being able to walk independently was evaluated as 4 point. The rats getting 1-3 point were selected for the subsequent experiment.
# The rats were divided into 7 groups in the experiment, that is, sham operation group, model group, Nimodipine group, LQC-T4 large dosage group, LQC-T4 small dosage group, TMP group, and TMP+Vanillic acid group. The model rats getting 1 point were distributed randomly into the model group and other administration group, while the rats getting 2 point and 3 point were distributed randomly into above 6 groups according the above method and sham operation group was not involved in the above grouping. […]
# [4] = 60 mg/kg intragastrically once per day for 10 days
# [5] = 120 mg/kg intragastrically once per day for 10 days
# [6] = 60 mg/kg intragastrically once a day
# [7] = 120 mg/kg intragastrically once a day
# [8] = 30 mg/kg once per day for 10 days
# [9] = 37 mg/kg once per day for 10 days
compound,measurement,setting,value
"COc1cc(C(=O)OCc2nc(C)c(C)nc2C)ccc1OCc1nc(C)c(C)nc1C [LQC-T4, (3,5,6-trimethylpyrazine-2-yl)methyl 3-methoxy-4-((3,5,6-trimethylpyrazine-2-yl)methoxy) benzoate]",SOD,[1]; [4],75.29 ± 30.08
same,SOD,[1]; [5],85.03 ± 56.03
same,"time of removing the tape, Evaluation (3 d)",[2]; [6],181.31 ± 133.40 s
same,"time of removing the tape, Evaluation (7 d)",[2]; [6],175.80 ± 139.06 s
same,"time of removing the tape, Evaluation (3 d)",[2]; [7],222.64 ± 104.45 s
same,"time of removing the tape, Evaluation (7 d)",[2]; [7],245.95 ± 98.23 s
same,Ca—Mg ATPase activity,[3]; [4],8.91 ± 4.05
same,Ca—Mg ATPase activity,[3]; [5],10.07 ± 5.15
"COCCOC(=O)C1=C(C)NC(C)=C(C(=O)OC(C)C)C1c1cccc([N+](=O)[O-])c1 (stereo not shown) [Nimodipine, reference compound]",SOD,[1]; [8],79.85 ± 36.57
same,"time of removing the tape, Evaluation (3 d)",[2]; 30 mg/kg once a day,211.13 ± 116.65 s
same,"time of removing the tape, Evaluation (7 d)",[2]; 30 mg/kg once a day,183.93 ± 124.50 s
same,Ca—Mg ATPase activity,[3]; [8],13.25 ± 5.73
"Cc1nc(C)c(C)nc1C [TMP, tetramethylpyrazine, reference compound]",SOD,[1]; [9],61.58 ± 16.23
same,"time of removing the tape, Evaluation (3 d)",[2]; 37 mg/kg once a day,200.43 ± 117.81 s
same,"time of removing the tape, Evaluation (7 d)",[2]; 37 mg/kg once a day,211.35 ± 111.15 s
same,Ca—Mg ATPase activity,[3]; [9],9.13 ± 4.11
